# Earlier results in patent US6691638B2, “Methods for gamete production in birds” (North Carolina State University, priority 2000, dated 2004).
# How the values were obtained:
# germ cells = details: 100 μg BU in sesame oil; cited from earlier work
# PGCs [1] = details: cited from earlier work
# gonadal germ cells = details: cited from earlier work
# PGCs [2] = details: administration in rats; cited from earlier work
# chick embryos = details: injection into the yolk sac; cited from earlier work
# quail eggs = details: albumen suspension of BU; cited from earlier work
# [3] = in vivo; cited from earlier work
# [4] = forms a suspension; cited from earlier work
# [5] = 50 μg BU suspended in sesame oil, 6 day-old chick embryos
# [6] = after injection of germinal crescent cells into BU-treated embryos
compound,measurement,setting,value
"CS(=O)(=O)OCCCCOS(C)(=O)=O [BU, 1,4-butanediol dimethane sulfonate]",Sterility index,germ cells,≥ 95%
same,Reduction of PGCs in the left gonad,PGCs [1]; [5],75%
same,Reduction of PGCs in the right gonad,PGCs [1]; [5],78%
same,"PGC numbers, left gonad, % of controls",PGCs [1]; [6],72 % of controls
same,"PGC numbers, right gonad, % of controls",PGCs [1]; [6],115 % of controls
same,Increase of the rate of germline chimerism,"gonadal germ cells; compared to non-BU treated embryos, estimated",3.5 fold
same,Effect on gonadal germ cells in chick embryos,"gonadal germ cells; injection of 25, 50 and 250 μg BU",significantly reduced
same,Effect on development of PGCs,PGCs [2],markedly impair
same,Teratogenic effect,chick embryos,multiple malformations
same,Effect on hatchability,quail eggs,significant declines in hatchability
same,Half-life,[3],approximately 10 hours
same,Solubility in aqueous solutions,[4],relatively insoluble
